Experimental data: patent publication US20150204850A1, “PRODUCTION OF BETA-CELLS” (Max-Planck-Gesellschaft zur Förderung der. Wissenschaften …, priority 2009, published 2015)
Marks after values point to notes of the source that are not given here.

Experiments:
β-cells = test: STZ-mediated diabetes induction (β-cell depletion); assay type: in vivo, mouse; details: mice, STZ 200 mg/kg intraperitoneally, single dose
Source text: We reasoned that such cells might be capable of replacing lost β-cells in diabetic mice. […] A higher mortality rate was found among animals older than 4 weeks, as compared to younger mice. It should be noticed that these animals were already hyperglycemic and weakened prior to STZ injection due to a combined insulin insensitivity and β-cell failure to optimally respond to a glucose challenge (FIG. 24). […] Ten days post-injection, only few insulin-producing cells were detected (FIG. 7F-G). […]
We reasoned that the continuous β-cell neogenesis observed in double-transgenic animals might be able to rescue experimentally-induced diabetes. Therefore, the function of the newly formed β-cells was assessed in diabetic mice with more than 95% β-cell loss following STZ treatment. […] Also under these conditions, clusters of glucagon^+ cells were detected at one pole of the islets, adjacent to duct structures, such cells subsequently adopting a β-cell phenotype.
To assess the effects of glucagon on islet size, mice were injected intraperitoneally twice daily (every 12h) with 5 μg of glucagon and sacrificed after 3 weeks of treatment. […] Lastly, BrdU was injected intraperitoneally (200 μl of 100 μl/ml) and was detected by immunohistochemistry (Invitrogen).

POE::Glucre β-cells = test: Arginine and liraglutide tolerance tests; assay type: in vivo, mouse; details: 10-week old POE::Glucre; arginine 5 mg intravenously; lower than in younger animals
POE::Glucre pancreata [1] = test: Real time RT-PCR of selected transcripts in pancreata of POE::Glucre mice supplemented with glucagon; assay type: in vivo, mouse; details: 6 week old POE::Glucre + glucagon for 3 weeks; WT/POE pancreata set at 100%
Experimental: (§1) To assess the effects of glucagon on islet size, mice were injected intraperitoneally twice daily (every 12h) with 5 μg of glucagon and sacrificed after 3 weeks of treatment. For STZ-mediated diabetes induction, a freshly prepared 50 mg/ml solution in 0.1 mol/l sodium citrate, pH 4.5 was injected intraperitoneally (200 mg/kg). Lentivirus production and injection were performed as described previously (Xu et al., 2008). Lastly, BrdU was injected intraperitoneally (200 μl of 100 μl/ml) and was detected by immunohistochemistry (Invitrogen).
RNA isolation (RNAeasy, Qiagen) and cDNA synthesis (Supercript choice system, Invitrogen) were performed according to the manufacturer's instructions. cDNA synthesis for analyses aiming to detect Pax4 transcripts was performed using a mixture of eight Pax4-derived (and β-actin-derived) antisense oligonucleotides instead of the provided oligo-dT primers (FIG. 13B).
Quantitative RT-PCR were carried out using the QuantiTect SYBR Green RT-PCR Kit (Qiagen) and validated primers (Qiagen) according to the manufacturer's instructions. The PCR reactions and detection were performed on a Mastercycler® ep realplex cycler using GAPDH and HPRT1 as internal controls for normalization purposes.
The expression of the indicated genes was assayed in pancreatic tissues of POE::Glucre, POE::Glucre supplemented with glucagon, and glucagon-receptor mutant (GluR-KO) mice using age-matched tissues of WT and POE pancreata as reference (values set at 100%). POE::Glucre, but also GluR-KO pancreata display increased contents of Ngn3 and Reg3b transcripts. Additionally, an augmentation in β-cell-specific transcripts is outlined in POE::Glucre, whereas the expression of the α-cell marker genes is reduced Importantly, concomitantly with a significant decrease in Ngn3 and Reg3b transcript contents, a reduction in insulin- and glucagon-producing cell numbers (and associated marker genes) is evidenced in POE::Glucre animals supplemented with glucagon. All values are statistically significant (P<0.05, n>2) versus POE/WT.

POE::Glucre pancreata [2] = test: Immunohistochemical cell counts and islet size in pancreata of mice supplemented with glucagon; assay type: in vivo, mouse
Experimental: We therefore hypothesized that the latter might be driven by the hypoglucagonemia resulting from the α- to β-cell conversion. To test this theory, we injected 3-week-old POE::Pdx1Cre, POE::Glucre, POE::Pax6cre, and control animals twice daily with glucagon during three weeks.
as §1
Tissues were fixed in 4% PFA overnight at 4° C., embedded in paraffin and 8-μm sections applied to slides. These sections were assayed as described previously (Collombat et al. 2003). In order to perform co-immunofluorescence, the GFP signal was bleached when necessary, as described (Collombat et al., 2007). The primary antibodies used were the following: mouse monoclonal anti-insulin, anti-glucagon ( 1/1000 —Sigma), anti-Ngn3 ( 1/2000—1F25A1B3, BCBC Antibody Core), anti-c-Myc ( 1/100 —Abcam); guinea pig anti-insulin, anti-glucagon ( 1/1000—Sigma); rabbit anti-somatostatin ( 1/600—Dako), anti-PP ( 1/200—Dako), anti-Nkx6.1 ( 1/3000), anti-Nkx2.2 ( 1/1000—kindly provided by T. Jessell), anti-Pax6 ( 1/500 Chemicon), anti-Pax4 ( 1/500), and anti-Arx ( 1/1000); chicken anti-β-galactosidase ( 1/500 Biozol); goat anti-Ngn3 ( 1/1000—kindly provided by M. Sander). The secondary antibodies ( 1/1000—Molecular Probes) used were: 594-alexa anti-mouse; 488-alexa anti-mouse; 594-alexa anti-rabbit; 488-alexa anti-rabbit; 594-alexa anti-guinea pig; 488-alexa anti-guinea pig. Pictures were processed using confocal microscopy. For quantification purpose, stained cells were counted manually on every tenth section and the count reported to the pancreatic area estimated in silico.
The counts in cells positive for the indicated genes are reported per square centimetre of pancreatic tissues of POE::Glucre, POE::Glucre supplemented with glucagon, and glucagon-receptor mutant (GluR-KO) mice using age-matched tissues of WT/POE pancreata as reference. It is worth noticing that, in animals ectopically expressing Pax4 in glucagon expression domains or in GluR-KO mice, Ngn3-producing cells reemerge (note for the latter that due to the bias introduced by the high background, this count should be considered as indicative). […] In the latter case, a concomitant decrease in BrdU-labelled proliferating cell numbers is highlighted (BrdU provided at 5 weeks of age, examination a week later). (n>2, **P<0.01, *P<0.05 using the POE/WT genotype as reference; ^##P<0.01, ^#P<0.05 using the POE::Glucre genotype as reference).

isolated islets = test: Perifusion analysis of isolated islets (insulin release); assay type: cell-based, mouse; details: 20 mM glucose + glucagon
Source text: […] (2003). […] Obviously, a decrease in digestion time/collagenase concentrations would not have permitted proper islet isolation. We anyway perifused the islets and observed no difference in islet function of younger animals for all the genotypes analyzed. However, in older counterparts, we did detect a decrease in the glucose-stimulated insulin release, albeit not significant. It should be noticed that such a lack of significance might be attributed to the loss of oversized islets induced by experimental conditions.

POE::Glucre animals = test: Insulin challenge (overall responsiveness to insulin); assay type: in vivo, mouse; details: older POE::Glucre animals; Actrapid insulin 0.75 mU/g subcutaneously
Experimental: Note that 600 mg of glucose per dl of blood correspond to the maximal value detectable by our glucose monitoring system. […] However, due to the experimental conditions used, we noticed a disaggregating of the islets (Table 7) and therefore turned to an in vivo approach: (C) To determine the overall responsiveness to insulin, an insulin challenge was performed in animals of the indicated genotypes and ages. […] (D-F) Aiming to also assay β-cell function, we treated POE::Glucre animals of the indicated genotypes and ages with two insulin secretagogues, arginine and liraglutide (a long-acting GLP-1 analog—Novo Nordisk—Denmark).
Animals of the indicated genotypes were injected subcutaneously with Actrapid insulin (0.75 mU/g—Novo Nordisk—Denmark), intravenously with arginine (5 mg—Sigma) or subcutaneously with liraglutide (200 micrograms per kg—Novo Nordisk—Denmark). Following insulin challenge, blood glucose levels were measured as described in the main manuscript. Next to arginine challenge, at each time point, one animal per genotype was sacrificed immediately for serum insulin level determination using RIA (Linco). Lastly, in the case of liraglutide, the latter was injected 30 min prior to glucose challenge. At each time point, three animals per genotype were sacrificed immediately for serum glucose and insulin level determination.

[3] = 6 week old POE::Glucre + glucagon

Compound: CN(N=O)C(=O)N[C@H]1C(O)O[C@H](CO)[C@@H](O)[C@@H]1O (mixture of isomers) [STZ, streptozotocin]
- β-cell loss following STZ treatment (β-cells): more than 95%

Compound: N=C(N)NCCC[C@H](N)C(=O)O [arginine]
- Insulin secretion after arginine challenge (POE::Glucre β-cells): able to elicit an insulin secretion

Compound: glucagon
- Arx transcript (real time RT-PCR) (POE::Glucre pancreata [1]): 15 ± 10%
- Glucagon transcript (real time RT-PCR) (POE::Glucre pancreata [1]): 18 ± 9%
- Insulin transcript (real time RT-PCR) (POE::Glucre pancreata [1]): 285 ± 52%
- Ngn3 transcript (real time RT-PCR) (POE::Glucre pancreata [1]): 475 ± 81%
- Nkx6.1 transcript (real time RT-PCR) (POE::Glucre pancreata [1]): 183 ± 20%
- Pax4 transcript (real time RT-PCR) (POE::Glucre pancreata [1]): 555 ± 91%
- Pdx1 transcript (real time RT-PCR) (POE::Glucre pancreata [1]): 279 ± 62%
- Reg3b transcript (real time RT-PCR) (POE::Glucre pancreata [1]): 434 ± 63%
- Islet size (POE::Glucre pancreata [2]; 3-week-old POE::Pdx1Cre, POE::Glucre, POE::Pax6cre mice injected twice daily with glucagon during three weeks, vs controls): significant decrease in islet size
- Glucagon-positive cell count (POE::Glucre pancreata [2]; [3]): 6 ± 4**^# per square centimetre
- Insulin-positive cell count (POE::Glucre pancreata [2]; [3]): 394 ± 132**^## per square centimetre
- BrdU (1 week) labelled cell count (POE::Glucre pancreata [2]; 6 week old POE::Glucre + glucagon, BrdU at 5 weeks of age, examination a week later): 28 ± 7^# per square centimetre
- Ngn3-positive cell count (POE::Glucre pancreata [2]; 6 week old POE::Glucre + glucagon, count indicative (high background)): 38 ± 11^# per square centimetre
- % of insulin released reported to the total insulin cell content/2 h (isolated islets; 3-week old Control islets): 8.9 ± 1.1%
- % of insulin released reported to the total insulin cell content/2 h (isolated islets; 3-week old POE::Glucre islets): 10.6%
- % of insulin released reported to the total insulin cell content/2 h (isolated islets; 12-week old Control islets): 9.5 ± 0.8%
- % of insulin released reported to the total insulin cell content/2 h (isolated islets; 12-week old POE::Glucre islets): 6.6 ± 1.2%

Compound: insulin: Actrapid insulin, Novo Nordisk, Denmark
- Glycemia after insulin challenge (POE::Glucre animals): did not observe any significant modification of the glycemia
